# Where “and” joins values, the source holds several entries; their conditions need not be identical. Equal entries are not always repeated. Entries after “also recorded” stand apart in the source; their conditions may differ.
# Legend:
# [1] = test system: patients with symptomatic obstructive HCM (oHCM); assay: Phase 2 trial: echocardiography (LVOT-G, LVEF, cardiac remodeling); format: in vivo, human; conditions: for patients achieving resting gradient <30 mmHg and post-Valsalva gradient <50 mmHg at Week 10 (complete hemodynamic response): n=14
# Text: Cohort 3 included patients receiving disopyramide.
# Since patient characteristics vary substantially in this disease, individualized dose titration to a pharmacodynamics (PD) response (reduction of the LVOT-G to <30 mmHg with preservation of LVEF >50%) was employed to maximize efficacy and safety.
# Patients up-titrated to Dose 2 if either of the following conditions were met on echocardiography: (1) resting LVOT-G ≥30 mmHg and the biplane LVEF ≥50%; or (2) resting LVOT-G <30 mmHg, post-Valsalva LVOT-G ≥50 mmHg, and the biplane LVEF ≥50%. Otherwise, the patient remains on Dose 1. If LVEF is <50% at Week 2, the patient was down-titrated to placebo.
# Patients were escalated to the next higher dose if either of the following conditions were met on echocardiography: (1) resting LVOT-G ≥30 mmHg and the biplane LVEF ≥50%; or (2) resting LVOT-G <30 mmHg, post-Valsalva LVOT-G ≥50 mmHg, and the biplane LVEF ≥50%. Otherwise, the patient remained on the same dose. If LVEF was <50% at Week 4, the patient was returned to a prior dose level or to placebo if the patient was on Dose 1.
# Echocardiograms obtained every 2 weeks and 2 weeks after the last dose were analyzed for several key structural and physiologic metrics and N-terminal prohormone of brain natriuretic peptide (NT-proBNP).
# Overall, treatment duration for each patient in the study was 10 weeks with an echocardiogram conducted 2 weeks after the last dose.
# Secondary results from the clinical study included data from Cohort 3 (n=13). […] Overall, treatment duration for each patient in the study was 10 weeks with an echocardiogram conducted 2 weeks after the last dose. Efficacy endpoints included resting and provoked LVOT gradients, NYHA class, and NT-proBNP.
# [2] = test system: patients with symptomatic oHCM; assay: Open-label extension: SRT eligibility per guideline criteria; format: in vivo, human; conditions: Week 48 visit; 19 patients (42%) eligible at baseline
# Text: There was a substantial reduction in peak resting and Valsalva LVOT-G from baseline to week 48 [ΔResting mean: −32 mmHg (±28); Δ Valsalva mean: −47 mmHg (±28)] (see FIG. 53 and FIG. 54, respectively). […] There was substantial improvement in NYHA class: by week 48, 88% of patients experienced ≥1 NYHA FC improvement while none had NYHA FC worsening (see FIG. 56). At baseline, 19 patients (42%) were eligible for SRT per guideline criteria of symptoms and hemodynamics, despite receiving beta-blocker, (78%) calcium channel blocker (18%), and disopyramide (22%). […] NT pro-BNP decreased from baseline to Week 48 (from a geometric mean [CV %] of 651.0 [160.4] to 111.1 [93.4] pg/mL), representing a […] reduction from baseline (p<0.0001).
# [3] = Cohort 3 (with disopyramide), n=13
# [4] = baseline to week 10, pooled aficamten
compound,measurement,setting,value
"CCc1nc(-c2ccc3c(c2)CC[C@H]3NC(=O)c2cnn(C)c2)no1 [aficamten, (R)—N-(5-(5-ethyl-1,2,4-oxadiazol-3-yl)-2,3-dihydro-1H-inden-1-yl)-1-methyl-1H-pyrazole-4-carboxamide]",patients achieving resting gradient <30 mmHg and post-Valsalva gradient <50 mmHg at Week 10 (complete hemodynamic response),"[1]; Cohort 1 (5, 10, 15 mg)",78.6% and 79%
same,average resting LVOT-G at 10 weeks,"[1]; Cohort 1 (n=14), 53.8 mmHg at baseline",13.4 mmHg
same,average Valsalva LVOT-G at 10 weeks,"[1]; Cohort 1 (n=14), 77.4 mmHg at baseline",38.1 mmHg
same,average ejection fraction at 10 weeks,"[1]; Cohort 1 (n=14), baseline 72.8% (73±6%)",67.3% and 67±9%
same,patients achieving resting gradient <30 mmHg and post-Valsalva gradient <50 mmHg at Week 10 (complete hemodynamic response),"[1]; Cohort 2 (10, 20, 30 mg)",92.9% and 93%
same,average resting LVOT-G at 10 weeks,"[1]; Cohort 2 (n=14), 58.2 mmHg at baseline",15.1 mmHg
same,average Valsalva LVOT-G at 10 weeks,"[1]; Cohort 2 (n=14), 82.3 mmHg at baseline",29.8 mmHg
same,average ejection fraction at 10 weeks,"[1]; Cohort 2 (n=14), baseline 75.4% (75±6%)",64.1% and 64±8%
same,patients with complete or partial response in LVOT gradients at end of treatment,[1]; Cohort 3 (Ten of 13),77%
same,patients with temporary complete or partial response during the treatment period,[1]; Cohort 3 (Three patients),23%
same,mean (SD) reduction of resting LVOT-G at Week 10,[1]; [3],27 mmHg
same,mean reduction of Valsalva LVOT-G at Week 10,[1]; [3],28 mmHg
same,mean LVEF at end of 10-week treatment,"[1]; Cohort 3 (with disopyramide), baseline 74±7.5%",69±7.2%
same,dose dependence of reductions in LVOT-G,[1]; Cohorts 1 and 2,dose dependent
same,onset of reductions in LVOT-G,[1]; Cohorts 1 and 2,within two weeks of initiating treatment
same,mean reduction in EF per mg of aficamten,"[1]; Cohorts 1 and 2, dose vs EF over time",−0.6 % per mg
same,change in e′,[1]; [4],0.5 cm/s
same,change in lateral E/e′,[1]; [4],−2.0 (±1.1)
same,"LVMI mean difference, aficamten vs placebo",[1]; week 10,8.1 g/m^2
same,patients eligible for SRT per guideline criteria,[2],none of these patients met these criteria; also recorded: eliminated SRT eligibility in all patients

# — patent US20240115554A1, “METHODS FOR TREATING OBSTRUCTIVE HYPERTROPHIC CARDIOMYOPATHY” (Cytokinetics, Incorporated, priority 2022, published 2024)
